Patent publication US20230105693A1, “ANTIMICROBIAL COMPOSITIONS” (Firmenich SA, priority 2020, published 2023)
Counter-ions that a name gives are not always drawn. Like-named read-outs stand apart in the source and are kept apart here.

Experiments:
[1] = Equivalent alkane carbon number (EACN) in model microemulsion system; type: physicochemical; conditions: C10E5/water/isopropyl myristate model system, 3% wt perfume ingredient
Procedure: EACN values provide information on polarity and surface activity of apolar ingredients. Tchakalova and Fieber (J. of Surfactants and Detergents, 2012, 15(2):167-177) classified perfume ingredients based on values of EACNmix, the EACN of a mixture consisting of a test perfume ingredient and a reference oil (isopropyl myristate). The same model system and method were used to measure the EACN values of perfume ingredients with antimicrobial activities. Different perfume ingredients were added to the model microemulsion system shown in Table 1, in which the nonionic pentaethylene glycol mono n-decyl ether (C10E5) was used as surfactant. Phase transition temperatures of the system from Winsor I to Winsor III, and from Winsor III to Winsor II were determined using a water bath. Alkanes with different alkane carbon numbers (octane, decane, dodecane and hexadecane) were used to establish a linear correlation curve between EACN and the PIT, which is the average of the transitions from Winsor I to Winsor III, and from Winsor III to Winsor II, respectively. EACNmix was then calculated based on the linear relationship and the measured PIT for systems containing different perfume ingredients. The EACN of the pure perfume ingredient was calculated based on the molar ratio of the tested PRMs in the oil phase using following equation: […]
wherein n and nref are the molar fractions of tested perfume ingredient and the reference ingredient (i.e., isopropyl myristate) in the oil phase, respectively.

[2] = tested on: Escherichia coli ATCC 10536; experiment: Robotic BCT test of perfume ingredients in model surfactant bases; type: cell-based; conditions: for Log reduction (Log CFU/mL) Base 3: Base 3: SLES 1.5%, coco-glucoside 0.75%; for Log reduction (Log CFU/mL) Base 4: Base 4: SLES 2.25%, sodium xylene sulfonate 3%; for log reduction at 0.5 %: Escherichia coli, ATCC10536, 45 s
Procedure: The surfactant bases tested included 1) sodium lauryl ether sulfate (SLES) and cocamidopropyl betaine (CAPB) at 3:1 mass ratios; 2) SLES, CAPB and coco-glucoside at 2:1:1 mass ratios. Test samples were prepared by mixing perfume ingredients with the surfactant bases and vigorously stirred for 24 hrs. Concentration of perfume ingredients in the bases was 0.5% wt. Samples with transparent appearance were selected for antimicrobial testing.
Antimicrobial efficacy was tested against a representative Gram-negative bacterial strain, Escherichia coli ATCC 10536, using robotic bacteria contact time (BCT) test based on European standard EN-1276 and EP2787827(B1).
Preparation of screening plate and dilution plate: Aliquots (270 µl) of compositions were dispensed into the wells of a 96-well microtiter plate (MTP) along two columns (B1-H1, and B7-H7), and 270 µl of MilliQ water was added to well A1 and A7 as the control samples. This MTP was labelled as the “Screening plate”. In another MTP, labelled as the “Dilution plate”, 270 µL of Dey-Engley (D/E) neutralizing solution was added to column 1 and column 7. 270 µl of tryptone diluent solution was added to columns 2-6 and columns 8-12 of the Dilution MTP by a Hamilton robotic liquid handling station.
BCT test & neutralization & dilution: Bacterial stock (30 µl) was then added to columns 1 of the ‘Screening plate’ and mixed by a Hamilton robotic liquid handling station. After a contact time of 45 seconds, 30 µl of the mixtures in column 1 were transferred into the corresponding wells of column 1 of the ‘Dilution plate’. After neutralizing for 5 minutes in the D/E neutralizing solution, 30 µl of the neutralized mixtures were transferred from column 1 to column 2 of the Dilution MTP and mixed, followed by transferring 30 µl of the mixtures from column 2 into column 3. This process was repeated serially diluting the bacteria suspensions across the plate to column 6. Bacterial stock (30 µl) was then added to columns 7 of the ‘Screening plate’ and mixed by a Hamilton robotic liquid handling station. After a contact time of 45 seconds, 30 µl of the mixtures in column 7 were transferred into the corresponding wells of column 7 of the ‘Dilution plate’. After neutralizing for 5 minutes in the D/E neutralizing solution, 30 µl of the mixtures were transferred from column 7 to column 8 of the Dilution MTP and mixed, followed by transferring further 30 µl mixtures from column 8 into column 9. This process was repeated serially diluting the bacteria suspensions across the plate to column 12.
Plating: 30 µl volumes from each well in the Dilution MTP were transferred onto four Tryptone Soya Agar (TSA) plates. The TSA plates were allowed to stand for about two hours so that the 30 µl inocula spots could dry and the plates were then inverted and incubated overnight at 37° C. for 24 hours. After incubation, colonies were counted.
Calculating log reduction: Select the dilutions with colony counts, and calculate the viable cell counts (CFU/mL) of mixture in ‘Screening plate’, and log reduction against the control MilliQ sample was calculated.

E. coli ATCC 10536 = experiment: Bacterial contact time (BCT) test of perfume ingredients in 20% ethanol solution (EN-1276 based); type: cell-based, Escherichia coli; conditions: 20% EtOH, 45 s
Procedure: Bacterial suspensions of E. coli ATCC 10536 were prepared for antimicrobial testing as follows. Stock cultures stored at -80° C. were sub-cultured onto Tryptic Soy Agar (TSA) plate, and incubated at 37° C. for 24 h to obtain single colonies. Single colonies of the primary cultures were streaked onto TSA plates and incubated at 37° C. for 24 h to prepare the secondary cultures. Single colonies of secondary cultures were inoculated into 50 mL of Tryptic Soy broth (TSB), incubated at 37° C. 180 rpm for 18 h. Aliquots (0.5 ml) of the 18 h culture were inoculated into 50 ml of fresh TSB, and incubated at 37° C. 180 rpm for 2- 3 hours. When the OD600 nm value of the broth reached 1-2, cells were harvested by centrifugation at 5,000 rpm for 10 min, and then resuspended in the same fresh broth media to achieve the target level of 1-5 × 10^8 colony forming unit (CFU)/mL. This suspension was used for further antimicrobial tests.
Unless indicated otherwise, log reduction testing according to the present invention is determined in accordance with the following method.
Bacterial contact time (BCT) test based on European standard EN-1276 was used to determine dose dependent bactericidal activity of perfume ingredients in 20% ethanol solutions.
Perfume ingredients of various concentrations (doses) were prepared in 40% ethanol solutions. Eleven replicates of each sample were added into 96-well microtiter plates (120 µl per well) in column 1-11 of one row, with row B as the control sample of the ethanol solution. Then, 120 µl of cell suspension at a concentration of approximately 1-5 × 10^8 CFU/ML (as prepared above) were added to each well of the microtiter plate. A specified contact time (45 s) was allowed for target bacterial strains. At the end of the contact time, serial dilutions were prepared in 96 well plates with growth media: 3 times of 1 in 10 dilutions and followed by 17 times of 1 in 2 dilutions. Each plate was sealed and incubated at 37° C. under agitation (180 rpm). After incubation, turbidity of the wells (OD 600 nm) was recorded by Tecan microplate reader. Turbid cells were regarded as positive growth of viable cells. The total number of viable cells (log CFU/mL) for each sample was calculated. And the log reduction for each test composition at the final concentration (dose) was calculated against the control sample of the 20% ethanol solution.
Table 20 show the bactericidal dose related effect (log reduction) and calculated effect fraction of the Mixture C and compositions against E. coli ATCC 10536. Stock of compositions were prepared in 100% ethanol, then diluted in MilliQ water to obtain 2 × final concentration in 40% ethanol. BCT tests were conducted on samples against E. coli for a contact time of 45 s.

[3] = 0.5% perfume ingredient, CAPB 0.75%, contact 45 s
[4] = 0.5% perfume ingredient, Base 1: SLES 1.875%, CAPB 0.625%, contact 45 s, read-out: Log reduction in Base 1 (Log CFU/mL)
[5] = 0.5% perfume ingredient, Base 2: SLES 2.25%, CAPB 0.75%, contact 45 s, read-out: Log reduction (Log CFU/mL) Base 2
[6] = model base 1, table by functional group, read-out: Log reduction in Base 1 (Log CFU/mL)

CC(=O)OC(C)c1ccccc1 (racemic) [(+-)-1-phenylethyl acetate]
EACN [1]: -0.99 | Log reduction (Log CFU/mL) Base 3 [2, 3]: 0.2 Log CFU/mL | Log reduction (Log CFU/mL) Base 4 [2, 3]: Insoluble | log reduction at 0.5 % [2, 4]: 0.6 ± 1 | log reduction at 0.5 % [2, 5]: 0

CC1=CC(C)C(CO)C(C)C1 (racemic) [(+-)-2,4,6-trimethyl-3-cyclohexene-1-methanol]
EACN [1]: -25.02

Cc1ccc2c(c1)CC(C)(CO)C2 (racemic) [(+-)-2,5-dimethyl-2-indanmethanol]
EACN [1]: -33.01

CC(CO)c1ccccc1 (racemic) [(+-)-2-phenyl-1-propanol]
EACN [1]: -29.67 | log reduction at 0.5 % [2, 4]: -0.3

CC(C=O)Cc1ccc2c(c1)OCO2 (racemic) [(+-)-3-(1,3-benzodioxol-5-yl)-2-methylpropanal]
EACN [1]: -11.56

CCCCCC1CCCC(=O)O1 (racemic) [(+-)-6-pentyltetrahydro-2H-pyran-2-one]
EACN [1]: -13.27

CC1=CCC(C(C)(C)O)CC1 (racemic) [(+-)-alpha-terpineol]
EACN [1]: -16.69 | log reduction at 0.5 % [2, 4]: 1.6

CCCCC(CC)CO (stereo not shown) [2-ethyl-1-hexanol]
Effect fraction (E. coli ATCC 10536; dose 0.060% w/v): 0.050 | Log reduction (E. coli ATCC 10536; dose 0.060% w/v): 0.367 | Effect fraction (E. coli ATCC 10536; dose 0.065% w/v): 0.100 | Log reduction (E. coli ATCC 10536; dose 0.065% w/v): 0.728 | Effect fraction (E. coli ATCC 10536; dose 0.070% w/v): 0.290 | Log reduction (E. coli ATCC 10536; dose 0.070% w/v): 2.052 | Effect fraction (E. coli ATCC 10536; dose 0.075% w/v): 0.510 | Log reduction (E. coli ATCC 10536; dose 0.075% w/v): 3.678 | Effect fraction (E. coli ATCC 10536; dose 0.080% w/v): 0.800 | Log reduction (E. coli ATCC 10536; dose 0.080% w/v): 5.760 | EACN [1]: -22.63 | log reduction at 0.5 % [2, 4]: 3.6 | log reduction at 0.5 % [2, 6]: 3.6

C/C=C/c1ccc(O)c(OC)c1 [2-methoxy-4-[(1E)-1-propen-1-yl]phenol]
EACN [1]: -42.88 | log reduction at 0.5 % [2, 4]: 0

O=COCCc1ccccc1 [2-phenylethyl formate]
EACN [1]: -6.21 | log reduction at 0.5 % [2, 4]: 0.3

CC/C=C\CC1=C(C)CCC1=O [3-methyl-2-[(2Z)-2-penten-1-yl]-2-cyclopenten-1-one]
EACN [1]: -8.51

CC(C)(C)C1CCC(=O)CC1 [4-(2-methyl-2-propanyl)cyclohexanone]
EACN [1]: -3.78

CCCc1ccc2c(c1)OCC(=O)CO2 [7-propyl-2H,4H-1,5-benzodioxepin-3-one]
EACN [1]: -40.99 | log reduction at 0.5 % [2, 4]: 0

CC/C=C\CC/C=C/CO [(2E,6Z)-2,6-nonadien-1-ol]
EACN [1]: -35.12 | Log reduction (Log CFU/mL) Base 3 [2, 3]: 3.9 Log CFU/mL | Log reduction (Log CFU/mL) Base 4 [2, 3]: >4.5 Log CFU/mL | log reduction at 0.5 % [2, 4]: 5.6 | log reduction at 0.5 % [2, 5]: 0.5 | log reduction at 0.5 % [2, 6]: > 5.5

CC(C)=CCC/C(C)=C\C=O [(2Z)-3,7-dimethyl-2,6-octadienal OR (2E)-3,7-dimethyl-2,6-octadienal]
EACN [1]: -5.09

CC/C(=C\C[C@H]1CC=C(C)C1(C)C)CO [(-)-(2E)-2-ethyl-4-[(1R)-2,2,3-trimethyl-3-cyclopenten-1-yl]-2-buten-1-ol]
EACN [1]: -23.86 | Log reduction (Log CFU/mL) Base 3 [2, 3]: Insoluble | Log reduction (Log CFU/mL) Base 4 [2, 3]: Insoluble | log reduction at 0.5 % [2, 4]: -0.2 | log reduction at 0.5 % [2, 5]: -1

CC(C)=CCC/C(C)=C/CO [(E)-3,7-dimethyl-2,6-octadien-1-ol]
Effect fraction (E. coli ATCC 10536; dose 0.040% w/v): -0.020 | Log reduction (E. coli ATCC 10536; dose 0.040% w/v): -0.175 | Effect fraction (E. coli ATCC 10536; dose 0.050% w/v): 0.130 | Log reduction (E. coli ATCC 10536; dose 0.050% w/v): 0.909 | Effect fraction (E. coli ATCC 10536; dose 0.055% w/v): 0.350 | Log reduction (E. coli ATCC 10536; dose 0.055% w/v): 2.474 | Effect fraction (E. coli ATCC 10536; dose 0.060% w/v): 0.660 | Log reduction (E. coli ATCC 10536; dose 0.060% w/v): 4.760 | Effect fraction (E. coli ATCC 10536; dose 0.070% w/v): 1.000 | Log reduction (E. coli ATCC 10536; dose 0.070% w/v): 7.160 | EACN [1]: -28.65 | Log reduction (Log CFU/mL) Base 3 [2, 3]: 4.2 Log CFU/mL | Log reduction (Log CFU/mL) Base 4 [2, 3]: Insoluble | log reduction at 0.5 % [2, 4]: > 5.4 | log reduction at 0.5 % [2, 5]: 0.5 | log reduction at 0.5 % [2, 6]: > 5.5

CC(C)=CCC/C(C)=C\CO [(Z)-3,7-dimethyl-2,6-octadien-1-ol]
EACN [1]: -28.26 | Log reduction (Log CFU/mL) Base 3 [2, 3]: 4.9 Log CFU/mL | Log reduction (Log CFU/mL) Base 4 [2, 3]: 4.5 Log CFU/mL | log reduction at 0.5 % [2, 4]: > 5.4 | log reduction at 0.5 % [2, 5]: 0.5 | log reduction at 0.5 % [2, 6]: > 5.5

CCOC(=O)Cc1ccccc1 [ethyl phenylacetate]
EACN [1]: -7.26

CCCCCCCCCCC=O [undecanal]
EACN [1]: 4.59
